Entries after “also recorded” stand apart in the source; their conditions may differ.
What was measured:
[1] = tested on: SH-SY5Y cells; assay: Chemotype enrichment analysis of PKIS2 primary screen hit categories; details: PKIS2 primary screening, hit category
[2] = tested on: SH-SY5Y cells; details: for DQ Intensity / DQ Spot: PKIS2 primary screening; for DQ Intensity: DQ Red BSA intensity; for DQ Spot: DQ Red BSA spot count
Excerpt: The PKIS2 Library was supplied by The Structural Genomics Consortium at the University of North Carolina at Chapel Hill.

[3] = tested on: SH-SY5Y cells; assay: Nuclear count from microscopy images (cellular growth and toxicity); details: PKIS2 primary screening
[4] = tested on: endogenous TFEB; assay: TFEB nuclear translocation, immunocytochemistry high-content imaging; format: cell-based; details: for TFEB %: PKIS2 primary screening
[5] = tested on: SH-SY5Y cells; assay: AK (adenylate kinase) release ToxiLight cytotoxicity assay; details: for AK: PKIS2 primary screening
Description: Total cell lysis with 5 µL 5% Triton-X 100 (Sigma-Aldrich, T8787) is used as a positive control for the assay and toxicity is expressed as a percentage of luminescence under DMSO conditions.

[6] = tested on: endogenous TFE3; assay: TFE3 nuclear translocation, immunocytochemistry high-content imaging; format: cell-based; details: for TFE3 %: PKIS2 primary screening

SMILES | Outcome [1] | DQ Intensity [2] | DQ Spot [2] | Nuclear Count [3] | TFEB % [4] [%] | AK [5] | TFE3 % [6] [%] | DQ Red BSA fluorescence intensity (in words) ([2]; SH-SY5Y, 24 h treatment) | DQ Red BSA spot count / active lysosome count (in words) ([2]; SH-SY5Y, 24 h treatment) | TFEB translocation (in words) ([4]; SH-SY5Y, 24 h treatment) | Cellular toxicity (AK release and nuclear count, in words) ([5]; SH-SY5Y, 24 h treatment) | TFE3 translocation (in words) ([6]; SH-SY5Y, 24 h treatment)
Cl.c1ccc(-c2ccc3c(Nc4ccc5[nH]ccc5c4)ccnc3c2)nc1 [UNC10225345A] | TOXIC | 44.66 | 42.49 | 89.15 | 8.10 | 157.00 | 38.32 | – | – | – | – | –
CC(C)(C)c1ccc2nccc(Nc3cccc(O)c3)c2c1 [UNC10225361A] | LYSO TOXIC | 97.55 | 54.23 | 71.73 | 10.76 | 101.00 | 26.88 | – | – | – | – | –
CC(=O)Nc1ccc(COc2ccc(Nc3ccnc4cc(-c5ccccn5)ccc34)cc2)cc1.Cl [UNC10225390A] | LYSO TOXIC | 42.39 | 42.67 | 89.28 | 19.19 | 71.40 | 50.24 | – | – | – | – | –
CN(C)CCOc1ccc(-c2cc(-c3ccc(Cl)c(O)c3)c(-c3ccncc3)[nH]2)cc1.Cl.Cl [UNC10225395A] | LYSO TOXIC | 71.39 | 40.46 | 86.70 | 15.65 | 117.96 | 46.41 | – | – | – | – | –
COc1ccc(C[C@@H](CN)NC(=O)c2cc(Br)c(-c3ccnc4[nH]ccc34)s2)cc1.Cl.Cl [UNC10225412A, reference compound] | TOXIC | 276.55 | 119.63 | 99.32 | 17.53 | 302.26 | 22.21 | increase in DQ Red BSA fluorescence intensity | small reduction in puncta count | translocation of TFEB and TFE3 | no toxicity; also recorded: without cellular toxicity | strong TFE3 translocation; also recorded: translocation of TFEB and TFE3
O=C(c1ccc(-c2cc(-c3c[nH]nc3-c3ccccn3)ccn2)cc1)N1CCOCC1 [UNC10225421A] | DQ Only | 150.15 | 98.06 | 121.31 | 4.79 | 76.85 | 13.41 | – | – | – | – | –
FC(F)(F)c1ccc(-c2ncn(CCCN3CCOCC3)c2-c2ccncc2)cc1 [UNC10225425A] | LYSO TOXIC | 74.41 | 77.10 | 88.34 | 5.42 | 109.44 | 9.69 | – | – | – | – | –
CN(C)Cc1ccc(-c2ccc3c(Nc4ccc(Oc5ccccn5)cc4)ccnc3c2)o1 [UNC10225428A] | LYSO TOXIC | 85.61 | 47.88 | 92.33 | 28.26 | 81.74 | 34.27 | – | – | – | – | –
COc1ccc(-c2oc3ncnc(N)c3c2-c2ccc(OC)cc2)cc1 [UNC10225431A] | DQ Only | 144.39 | 120.26 | 51.87 | 4.87 | 79.67 | 9.25 | – | – | – | – | –
Cc1ccc(C(=O)Nc2ccc(Nc3ccnc4cc(-c5nccs5)ccc34)cc2O)cc1.Cl [UNC10225432A] | LYSO TOXIC | 38.26 | 36.88 | 89.90 | 8.56 | 74.29 | 56.52 | – | – | – | – | –
CCNCC(Cc1ccccc1)NC(=O)c1cc(Br)c(-c2ccnc3[nH]ccc23)s1.Cl.Cl (centres unmarked) [UNC10225436A] | DQ / TFEB/TFE3 | 185.61 | 102.66 | 80.17 | 20.72 | 108.80 | 35.73 | – | – | – | – | –
COc1cccc(-c2cc(-c3c[nH]nc3-c3ccccn3)ccn2)c1 [UNC10225448A] | LYSO TOXIC | 60.35 | 69.14 | 116.22 | 6.19 | 109.46 | 7.93 | – | – | – | – | –
CN(C)S(=O)(=O)c1cc(-c2ccc3nccc(-c4cccc(S(N)(=O)=O)c4)c3c2)cnc1N [UNC10225457A] | LYSO TOXIC | 100.41 | 77.18 | 78.66 | 2.30 | 74.17 | 3.13 | – | – | – | – | –
Cl.Oc1cccc(Nc2ccnc3cc(-c4ccncc4)ccc23)c1 [UNC10225467A] | LYSO TOXIC | 34.95 | 51.42 | 88.58 | 5.92 | 125.78 | 10.65 | – | – | – | – | –
Cc1ccc(O)cc1Nc1ccnc2ccc(C(C)(C)C)cc12 [UNC10225479A] | LYSO TOXIC | 91.49 | 60.27 | 78.69 | 23.46 | 75.82 | 19.57 | – | – | – | – | –
